Reference: patent publication US9023861B2, “Anticancer combination of artemisinin-based drugs and other chemotherapeutic agents” (Sigma-Tau Industrie Farmaceutiche Riunite, S.p.A., priority 2009, dated 2015)

How the values were obtained:
[1] = test system: NCI-H460 non-small cell lung carcinoma; assay: In vivo antitumor activity, s.c. xenograft in CD1 nude mice; settings: DHA 200 mg/kg p.o., AZD2281 100 mg/kg i.p., qdx5/wx3w
Description: NCI-H460 non-small cell lung carcinoma cells were inoculated subcutaneously (s.c.) in the right flank of CD1 nude mice (3×10^6/0.1 ml of Medium 199). Treatments started three days after tumour injection. Mice were subdivided (10 mice/group) in the following experimental groups:
(§1) a) Vehicle (DMSO 10%) 10 ml/kg, i.p.;
b) DHA 200 mg/kg, p.o. qdx5/wx3w;
d) AZD2281+DHA (doses and schedules as above).
For the latter experiment DHA was administered immediately before AZD2281.
To evaluate the antitumour activity, tumour diameters were measured with a Vernier calliper according to the formula TV=d^2×D/2 where d and D are the shortest and longest diameters, respectively.
When tumours reached a volume of about 1500 mm^3, mice were sacrificed by cervical dislocation. The efficacy of the drug was assessed as the tumour volume inhibition according to the formula reported underneath: […]
Body weight recording was carried out to evaluate body weight loss as calculated in the equation underneath: […]
Wherein BW day x corresponds to the mean weight at day x of the experiment meanwhile BW day 1 corresponds to the mean weight at the first day of the experiment.

HT29 = assay: Anti-proliferative activity, sulphorodamine B test; type: cell-based; settings: Homo sapiens, HT-29, 24 h exposure, 48 h recovery
Description: (§2) The biological activity of DHA and ART on tumour cells survival was evaluated. The latter were seeded in 96-well tissue culture plates at approximately 10% confluence and were allowed to attach and recover for at least 24 h before being exposed to DHA or ART for 24 h at 37° C. They were then washed to remove DHA and ART and left to recover for 48 hours in medium culture. The medium culture was then removed and cells were washed three times with PBS. The plates were then incubated for on ice for 1 hour with 200 μl of PBS and 50 μl of cold 80% TCA before being washed with distilled water, dried on paper and finally at 40° C. for 5 minutes. 200 μl of 0.4% sulphorodamine B in 1% acetic acid were added and the incubation was prolonged for 30 minutes. Sulphorodamine B was removed, and the plates were washed 3 times with 1% acetic acid. They were finally dried on paper followed by standing at 40° C. for 5 minutes. Then 200 μl Tris 10 mM were added, the plates were kept under stirring for 20 minutes. Cell survival was determined as optical density at 540 nm by means of a Multiskan spectrofluorimeter. The amount of cells killed was expressed as the percentage decrease in sulphorodamine B binding compared to control cultures. IC50 were generated with their standard deviations by the ALLFIT program.

LoVo/Dx MDR = assay: Anti-proliferative activity, sulphorodamine B test; type: cell-based; settings: LoVo/Dx MDR; 24 h exposure, 48 h recovery
Description: as §2

MCF-7 = assay: Anti-proliferative activity, sulphorodamine B test; type: cell-based; settings: Homo sapiens, MCF7, 24 h exposure, 48 h recovery
Description: as §2

SW620 = assay: Anti-proliferative activity, sulphorodamine B test; type: cell-based; settings: Homo sapiens, SW-620, 24 h exposure, 48 h recovery
Description: as §2

LoVo = assay: Anti-proliferative activity, sulphorodamine B test; type: cell-based; settings: Homo sapiens, 24 h exposure, 48 h recovery
Description: as §2

A2780 = assay: Anti-proliferative activity, sulphorodamine B test; type: cell-based; settings: Homo sapiens, 24 h exposure, 48 h recovery
Description: as §2

NCI-H460 = assay: Anti-proliferative activity, sulphorodamine B test; type: cell-based; settings: Homo sapiens, 24 h exposure, 48 h recovery
Description: as §2

HCT116 = assay: Anti-proliferative activity, sulphorodamine B test; type: cell-based; settings: Homo sapiens, HCT-116, 24 h exposure, 48 h recovery
Description: as §2

MCF-7/Dx MDR = assay: Anti-proliferative activity, sulphorodamine B test; type: cell-based
Description: as §2

[2] = test system: HCT116 colon cancer cells; assay: In vivo antitumour activity, s.c. xenograft in CD1 nude mice; settings: DHA 200 mg/kg p.o., AZD2281 100 mg/kg i.p., qdx5/wx4w
Description: HCT116 colon cancer cells were inoculated subcutaneously (s.c.) in the right flank of CD1 nude mice (5×10^6/0.1 ml of Medium 199). Treatments started three days after tumour injection. Mice were subdivided (8 mice/group) in the following experimental groups:
as §1
b) DHA 200 mg/kg, p.o. qdx5/wx4w;
d) AZD2281+DHA (doses and schedules as above);
e) ABT-888 50 mg/kg, i.p. qdx5/wx4w;
f) ABT-888+DHA (doses and schedules as above).
DHA was administered immediately before AZD2281 or ABT-888.
The antitumour activity was evaluated according to the protocol reported hereinabove in example 3 when tumours reached a volume of about 500 mm^3.
Body weight recording was carried out to evaluate body weight loss according to the protocol reported hereinabove in example 3.

C[C@H]1[C@@H](O)O[C@@H]2O[C@@]3(C)CC[C@H]4[C@H](C)CC[C@@H]1[C@@]24OO3 [DHA, dihydroartemisinin]
tolerability (body weight loss during the treatment) ([1]; NCI-H460 xenograft mice): well-tolerated | BWL % ([1]; body weight loss, NCI-H460 xenograft, CD1 nude mice): 0% | TVI % ([1]; tumour volume inhibition, NCI-H460 xenograft, CD1 nude mice): 3% | TV ± SE ([1]; tumour volume, NCI-H460 xenograft, CD1 nude mice, sacrifice at about 1500 mm^3): 1575 ± 191 | IC50 (HT29): 5800 ± 500 nM | IC50 (LoVo/Dx MDR): 1180 ± 300 nM | IC50 (MCF-7): 1050 ± 80 nM | IC50 (SW620): 1800 ± 100 nM | IC50 (LoVo): 2570 ± 800 nM | IC50 (A2780): 230 ± 20 nM | IC50 (NCI-H460): 8160 ± 500 nM | IC50 (HCT116): 370 ± 80 nM | IC50 (MCF-7/Dx MDR; MCF7/DX, MCF-7/Dx MDR, 24 h exposure, 48 h recovery): 970 ± 300 nM | resistance index (MCF-7/Dx MDR; MCF-7/Dx MDR versus MCF-7): 0.92 | tolerability (body weight loss during the treatment) ([2]; HCT116 xenograft mice, ABT-888 50 mg/kg): well-tolerated | BWL % ([2]; body weight loss, HCT116 xenograft, CD1 nude mice, ABT-888 50 mg/kg i.p.): 1% | TVI % ([2]; tumour volume inhibition, HCT116 xenograft, CD1 nude mice, ABT-888 50 mg/kg i.p.): 0% | TV ± SE ([2]; tumour volume, HCT116 xenograft, CD1 nude mice, ABT-888 50 mg/kg i.p., evaluated at about 500 mm^3): 447 ± 39
